Measured values published in ChEMBL document CHEMBL6182898, “Design, synthesis and bioevaluation of novel hydrazide derivatives as enhancers of immunotherapy and DNA-damage response in antitumor therapy” (Eur J Med Chem, 2025).

Assays:
HCT-116 [1] = experiment: cells; format: functional; details: Homo sapiens, time 72 hrs
K562 [2] = experiment: cells; format: functional; details: Homo sapiens, time 72 hrs
B16-F10 [3] = experiment: cells; format: functional; details: Mus musculus, time 72 hrs
4T1 [4] = experiment: cells; format: functional; details: Mus musculus, time 72 hrs
SK-OV-3 [5] = experiment: cells; format: functional; details: Homo sapiens, time 72 hrs
SK-OV-3 [6] = experiment: Antiproliferative activity against human SK-OV-3 cells incubated for 72 hrs by MTT assay; format: functional, cell-based; details: SK-OV-3, 72 h
[7] = Antiproliferative activity against human HK-2 cells incubated for 72 hrs by MTT assay
HCT-116 [8] = experiment: Antiproliferative activity against human HCT-116 cells incubated for 72 hrs by MTT assay; format: functional, cell-based; details: HCT-116, 72 h
K562 [9] = experiment: Antiproliferative activity against human K562 cells incubated for 72 hrs by CCK8 assay; format: functional, cell-based; details: K562, 72 h
Histone deacetylase 1 = Histone deacetylase 1 (Homo sapiens, UniProt Q13547); experiment: Inhibition of HDAC1 (unknown origin)
Chain of Histone deacetylase 1 (Q13547 whole entry): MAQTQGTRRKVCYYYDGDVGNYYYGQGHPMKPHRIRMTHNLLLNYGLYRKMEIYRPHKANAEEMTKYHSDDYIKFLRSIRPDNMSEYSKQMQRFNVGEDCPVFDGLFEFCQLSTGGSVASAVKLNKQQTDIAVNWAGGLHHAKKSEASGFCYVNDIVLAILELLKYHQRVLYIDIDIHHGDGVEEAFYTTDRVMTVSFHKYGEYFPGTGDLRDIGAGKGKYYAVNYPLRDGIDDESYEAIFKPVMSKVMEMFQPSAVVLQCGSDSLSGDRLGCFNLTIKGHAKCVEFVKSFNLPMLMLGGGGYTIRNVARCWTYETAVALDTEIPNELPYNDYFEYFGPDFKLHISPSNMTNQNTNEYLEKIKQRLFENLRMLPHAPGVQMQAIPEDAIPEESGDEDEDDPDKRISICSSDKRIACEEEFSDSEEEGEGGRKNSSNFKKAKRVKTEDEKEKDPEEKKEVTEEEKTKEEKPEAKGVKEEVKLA

Histone deacetylase 8 = target: T1, Histone deacetylase 8 (Homo sapiens, UniProt Q9BY41); experiment: Inhibition of HDAC8 (unknown origin)
T1 sequence (Q9BY41 whole entry): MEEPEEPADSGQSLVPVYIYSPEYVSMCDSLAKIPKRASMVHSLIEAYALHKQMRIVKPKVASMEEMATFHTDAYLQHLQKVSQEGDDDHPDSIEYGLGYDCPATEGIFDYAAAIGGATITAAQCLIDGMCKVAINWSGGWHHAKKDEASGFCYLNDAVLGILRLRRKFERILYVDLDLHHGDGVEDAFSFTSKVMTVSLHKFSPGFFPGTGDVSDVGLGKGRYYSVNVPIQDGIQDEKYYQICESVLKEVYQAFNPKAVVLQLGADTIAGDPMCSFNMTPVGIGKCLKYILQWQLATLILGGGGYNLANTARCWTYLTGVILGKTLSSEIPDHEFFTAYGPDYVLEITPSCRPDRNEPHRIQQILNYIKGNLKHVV

Histone deacetylase 3 = Histone deacetylase 3 (Homo sapiens, UniProt O15379); experiment: Inhibition of HDAC3 (unknown origin)
Chain of Histone deacetylase 3 (O15379 whole entry): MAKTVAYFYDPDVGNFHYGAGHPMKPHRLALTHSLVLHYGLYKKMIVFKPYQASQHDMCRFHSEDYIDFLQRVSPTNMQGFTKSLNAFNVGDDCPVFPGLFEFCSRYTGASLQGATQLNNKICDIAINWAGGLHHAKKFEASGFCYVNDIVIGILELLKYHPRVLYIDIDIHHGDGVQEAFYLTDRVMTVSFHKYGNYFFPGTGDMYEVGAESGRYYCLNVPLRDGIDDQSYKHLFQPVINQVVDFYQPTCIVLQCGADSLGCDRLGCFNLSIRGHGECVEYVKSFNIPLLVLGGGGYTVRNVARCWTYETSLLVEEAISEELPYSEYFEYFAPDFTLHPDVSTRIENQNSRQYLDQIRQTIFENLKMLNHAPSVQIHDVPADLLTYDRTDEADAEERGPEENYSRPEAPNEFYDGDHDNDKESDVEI

B16-F10 [10] = experiment: Antiproliferative activity against mouse B16-F10 cells incubated for 72 hrs by MTT assay; format: functional, cell-based; details: B16-F10, 72 h
[11] = target: T2, Protein deacetylase HDAC6 (Homo sapiens, UniProt Q9UBN7); experiment: Inhibition of HDAC6 (unknown origin)
T2 sequence (Q9UBN7 whole entry): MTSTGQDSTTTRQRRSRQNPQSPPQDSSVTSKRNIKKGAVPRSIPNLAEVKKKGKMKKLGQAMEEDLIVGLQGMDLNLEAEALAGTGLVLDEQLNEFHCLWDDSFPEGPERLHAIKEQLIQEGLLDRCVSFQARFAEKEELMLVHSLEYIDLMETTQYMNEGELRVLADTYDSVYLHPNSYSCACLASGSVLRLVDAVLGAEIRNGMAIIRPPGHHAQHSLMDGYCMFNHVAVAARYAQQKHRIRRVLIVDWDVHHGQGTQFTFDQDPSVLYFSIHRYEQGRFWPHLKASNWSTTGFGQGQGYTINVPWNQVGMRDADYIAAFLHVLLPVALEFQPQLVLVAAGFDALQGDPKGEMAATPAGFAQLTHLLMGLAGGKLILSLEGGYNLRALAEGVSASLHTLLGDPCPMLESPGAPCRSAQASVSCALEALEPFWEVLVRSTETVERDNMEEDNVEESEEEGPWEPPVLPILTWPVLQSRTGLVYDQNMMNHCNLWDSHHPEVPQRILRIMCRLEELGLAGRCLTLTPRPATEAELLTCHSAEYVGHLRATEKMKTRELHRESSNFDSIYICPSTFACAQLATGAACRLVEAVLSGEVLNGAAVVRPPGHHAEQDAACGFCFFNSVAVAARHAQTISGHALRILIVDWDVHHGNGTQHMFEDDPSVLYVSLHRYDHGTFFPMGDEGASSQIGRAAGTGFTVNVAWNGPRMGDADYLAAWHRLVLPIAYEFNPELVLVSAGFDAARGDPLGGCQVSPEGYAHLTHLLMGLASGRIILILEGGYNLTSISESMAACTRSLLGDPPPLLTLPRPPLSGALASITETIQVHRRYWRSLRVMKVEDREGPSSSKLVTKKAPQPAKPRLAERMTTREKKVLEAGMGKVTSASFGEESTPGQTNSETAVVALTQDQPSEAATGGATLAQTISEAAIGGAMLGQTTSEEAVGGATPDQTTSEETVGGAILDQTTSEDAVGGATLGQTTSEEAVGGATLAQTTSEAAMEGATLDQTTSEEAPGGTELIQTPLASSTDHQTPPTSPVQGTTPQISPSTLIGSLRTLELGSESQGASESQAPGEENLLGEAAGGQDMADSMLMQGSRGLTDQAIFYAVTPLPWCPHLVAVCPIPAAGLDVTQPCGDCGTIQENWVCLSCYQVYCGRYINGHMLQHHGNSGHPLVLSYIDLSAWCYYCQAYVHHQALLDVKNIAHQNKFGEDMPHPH

4T1 [12] = experiment: Antiproliferative activity against mouse 4T1 cells incubated for 72 hrs by MTT assay; format: functional, cell-based; details: 4T1, 72 h

IC50 (SK-OV-3 [6]) | IC50 (HCT-116 [8]) | IC50 (K562 [9]) | IC50 (Histone deacetylase 1) | IC50 (Histone deacetylase 8) | IC50 (Histone deacetylase 3) | IC50 (B16-F10 [10]) | IC50 [11] | IC50 (4T1 [12]) | SMILES | inhibition at 10 µM (HCT-116 [1]) | inhibition at 10 µM (K562 [2]) | inhibition at 10 µM (B16-F10 [3]) | inhibition at 10 µM (4T1 [4]) | inhibition at 10 µM (SK-OV-3 [5]) | IC50 at 72 h [7]
 |  |  |  |  |  |  |  |  | CC(C)=CCCC(C)CNNC(=O)CCCCCCNC(=O)c1cnc(-c2ccc(NC(=O)OC(C)(C)C)cc2)s1 (stereo unspecified) | 58.7% | 53.5% | 66.8% | 40.5% | 57.2% | 
 |  |  |  |  |  |  |  |  | C=CCNNC(=O)CCCCCCNC(=O)c1cnc(-c2ccc(NC(=O)OC(C)(C)C)cc2)s1 | 58.2% | 63.7% | 53.5% | 61.2% | 64.6% | 
 |  |  |  |  |  |  |  |  | CCCCCCCCCNNC(=O)CCCCCCNC(=O)c1cnc(-c2ccc(NC(=O)OC(C)(C)C)cc2)s1 | 59.7% | 55.2% | < 50% | < 20% | 45% | 
12.7 µM | 0.79 µM | 8.12 µM | > 5 µM | > 10 µM | 3.43 µM | 5.31 µM | > 10 µM | 14.4 µM | CCCNNC(=O)CCCCCCNC(=O)c1cnc(-c2ccc(Br)cc2)s1 | 59.3% | < 50% | 50.7% | 53% | 60.8% | 13.9 µM
8.33 µM | 0.91 µM | 0.79 µM |  |  |  | 11 µM |  | 8.82 µM | Nc1ccccc1NC(=O)c1ccc(CNC(=O)OCc2cccnc2)cc1 [ENTINOSTAT] | 94.6% | 70.5% | 46.2% | 43.4% | 50.2% | 13.5 µM
 |  |  |  |  |  |  |  |  | CCCNNC(=O)CCCCCCNC(=O)c1cnc(-c2cccc(C)c2)s1 | 61.7% | < 50% | < 50% | < 20% | < 50% | 
8.66 µM | 1.07 µM | 4.2 µM | > 5 µM | > 10 µM | 1.88 µM | 14.8 µM | > 10 µM | 11.8 µM | CCCNNC(=O)CCCCCCNC(=O)c1cnc(-c2ccc(Oc3ccccc3)cc2)s1 | 73.1% | < 50% | 58% | 40.8% | 76% | 14.1 µM
 |  |  |  |  |  |  |  |  | CCCNNC(=O)CCCCCNC(=O)c1cnc(-c2ccc(OC(F)(F)F)cc2)s1 | 62.9% | 69.5% | < 50% | 31.9% | < 50% | 
 |  |  |  |  |  |  |  |  | CCCNNC(=O)CCCCCNC(=O)c1cnc(-c2ccc(Cl)cc2)s1 | 58.2% | < 50% | < 50% | 21.5% | < 50% | 
 |  |  |  |  |  |  |  |  | CC(C)CNNC(=O)CCCCCCNC(=O)c1cnc(-c2ccc(NC(=O)OC(C)(C)C)cc2)s1 | 59% | 55.9% | 51% | 23.9% | 39.2% | 
 |  |  |  |  |  |  |  |  | CCCNNC(=O)CCCCCNC(=O)c1cnc(-c2cccc3ccccc23)s1 | 60.6% | 67.5% | < 50% | < 20% | < 50% | 
 |  |  |  |  |  |  |  |  | CCCNNC(=O)CCCCCNC(=O)c1cnc(-c2ccc(C(F)(F)F)cc2)s1 | < 50% | < 50% | 59.6% | 38.9% | 70.9% | 
 |  |  |  |  |  |  |  |  | CCCNNC(=O)CCCCCNC(=O)c1cnc(-c2ccc(NC(=O)OC(C)(C)C)cc2)s1 | 53.6% | 68.9% | < 50% | 27.1% | < 50% | 
 |  |  |  |  |  |  |  |  | CCCNNC(=O)CCCCCCNC(=O)c1cnc(-c2ccc(OC(F)(F)F)c(OC(F)(F)F)c2)s1 | 88.8% | 69.5% | 54.5% | 20.5% | 62.7% | 
 |  |  |  |  |  |  |  |  | CCCNNC(=O)CCCCCNC(=O)c1cnc(-c2ccc(F)cc2F)s1 | 62.9% | 59.8% | < 50% | 21.7% | < 50% | 
 |  |  |  |  |  |  |  |  | CCCNNC(=O)CCCCCCNC(=O)c1cnc(-c2ccc3c(c2)OCO3)s1 | 68.4% | 68.9% | 59.6% | 22.1% | 86.8% | 
 |  |  |  |  |  |  |  |  | CCCNNC(=O)CCCCCNC(=O)c1cnc(-c2cccc(OC)c2)s1 | < 50% | < 50% | < 50% | < 20% | < 50% | 
5.06 µM | 8.15 µM | 1.46 µM | 1.57 µM | > 10 µM | 0.42 µM | 9.36 µM | > 10 µM | 9.82 µM | CCCNNC(=O)CCCCCCNC(=O)c1cnc(-c2ccc3[nH]ccc3c2)s1 |  |  |  |  |  | 10.1 µM
 |  |  |  |  |  |  |  |  | CCCNNC(=O)CCCCCNC(=O)c1cnc(-c2ccc(Cl)cc2Cl)s1 | 54% | < 50% | < 50% | < 20% | < 50% | 
 |  |  |  |  |  |  |  |  | CCCNNC(=O)CCCCCNC(=O)c1cnc(-c2ccc3ccccc3c2)s1 | 58.5% | 59.8% | < 50% | < 20% | < 50% | 
 |  |  |  |  |  |  |  |  | CCCNNC(=O)CCCCCCNC(=O)c1cnc(-c2c[nH]c3ccccc23)s1 | 72.7% | 67.7% | < 50% | 21.8% | 53% | 
 |  |  |  |  |  |  |  |  | CC(C)(C)OC(=O)Nc1ccc(-c2ncc(C(=O)NCCCCCCC(=O)NNCC3CC3)s2)cc1 | 85.8% | 71.3% | 52.1% | 21.4% | 57.5% | 
 |  |  |  |  |  |  |  |  | CCCNNC(=O)c1ccc(NC(=O)c2cnc(-c3ccc(F)cc3)s2)cc1 | < 50% | 69.6% | < 50% | < 20% | < 50% | 
 |  |  |  |  |  |  |  |  | CCCNNC(=O)CCCCCNC(=O)c1cnc(-c2c[nH]c3ccccc23)s1 | 36.5% | < 50% | < 50% | < 20% | < 50% | 

SMILES | IC50 (SK-OV-3 [6]) | IC50 (HCT-116 [8]) | IC50 (K562 [9]) | IC50 (Histone deacetylase 1) | IC50 (Histone deacetylase 8) | IC50 (Histone deacetylase 3) | IC50 (B16-F10 [10]) | IC50 [11] | IC50 (4T1 [12]) | inhibition at 10 µM (HCT-116 [1]) | inhibition at 10 µM (K562 [2]) | inhibition at 10 µM (B16-F10 [3]) | inhibition at 10 µM (4T1 [4]) | inhibition at 10 µM (SK-OV-3 [5]) | IC50 at 72 h [7]
CCCNNC(=O)c1ccc(NC(=O)c2cnc(-c3ccccc3C)s2)cc1 | 5.57 µM | 3.45 µM | 3.58 µM | 1.62 µM | > 10 µM | 0.87 µM | 12 µM | > 10 µM | 14.5 µM | 67.1% | 73.2% | < 50% | 26.4% | 56.2% | 11.9 µM
